What was measured:
[1] = during intravenous injection; cited from earlier work
[2] = tested on: P388 lymphoplastic leukemia; assay: GMDP-A lyophilisate versus final pharmaceutical form, alone and with DDP, in the P388 lymphoplastic leukemia model; type: in vivo, BDF1 mice; conditions: if given, 21-fold, single
Procedure: Therapeutic efficiency of GMDP-A lyophilisate and the GMDP-A final pharmaceutical form was compared in the model of P338 lymphoplastic leukemia solid version at the early treatment start (in 24 hour after subcutaneous transplantation of tumor material) as GMDP-A monotherapy (lyophilisate or the final pharmaceutical form) as well as combined administration with DDP.
As a final pharmaceutical form, “GMDP-A, 1 mg/ml solution for subcutaneous injection” sterile solutions were used. They contained GMDP-A and the following auxiliary substances and carriers in pharmaceutically-accepted amounts: sorbitol, disodium edeteate, propylene glycol, water.

[3] = tested on: B16 melanoma; assay: Binary therapy DDP+GMDP-A in the B16 melanoma model; type: in vivo, BDF1 mice; conditions: single DDP 4 mg/kg i.v. alone
Procedure: (§1) They were transplanted on the right-side surface of the animal body.
(§2) The animals with tumors were treated in test groups at the early (24 hours after tumor inoculation) and late (5 days after tumor inoculation) terms of the tumor growth using a single cytostatic injection intravenously in a dose equal to ½ or ¼ of therapeutic one and various schedules for GMDP-A injection: • Primary subcutaneous injection of GMDP-A modifier in a single dose 3.75 mg/kg; • Repeated protracted subcutaneous administration of GMDP-A modifier according to different schedules: 4-fold, 9-fold and 20-fold, once per day, in a single dose of 3.75 mg/kg (course dose is 18.75 mg/kg, 37.5 mg/kg and 78.75 mg/kg, correspondingly). Dosage frequency depends upon the model (histological form of transplanted tumor).
(§3) To identify efficiency of the claimed combined therapy, independent medication was carried out as a control after tumor inoculation using one component of binary therapy-cytostatic drug or a modifier. Cytostatic was injected intravenously in amount of ½ or ¼ of therapeutic dose once after 24 hours or 5 days after tumor inoculation; GMDP-A modifier was administered subcutaneously in a single dose of 3.75 mg/kg 5-fold from the 1st day to the 5th day or from the 5th day to the 9th day, or 10-fold from the 1st day to the 10th day or from the 5th day to the 14th day, or 21-fold from the 1st day to the 21st day after tumor inoculation.
Efficiency of the combined therapy—chemotherapy with DDP cytostatic and biotherapy with GMDP-A was assessed on B16 melanoma model inoculated to BDF1 mice, females, subcutaneously on the right-side body surface.
GMDP-A was administered to mice subcutaneously as a single dose of 3.75 mg/kg every day with different schedules:
Five-fold (total dose is 18.75 mg/kg) on the 1st day to the 5th day or on the 5th day to the 9th day after tumor inoculation;
Ten-fold (total dose is 37.5 mg/kg) on the 1st day to the 10th day or on the 5th day to the 14th day after tumor inoculation;
DDP (Cisplatin, Cisplatin Teva trade mark, manufacturer is Teva Pharmaceutical Industries Ltd., Israel, fabricated at Pharmachemie B.V., the Netherlands) was administered intravenously as a single dose of 4 mg/kg (½ of therapeutic dose).

[4] = tested on: P388 lymphoplastic leukemia; assay: Combined therapy different cytostatics+GMDP-A in the P388 lymphoplastic leukemia model; type: in vivo, BDF1 mice; conditions: single cytostatic alone (DDP 1/2, gemzar 1/2, CP 1/4 therapeutic dose), start 24 hours after inoculation
Procedure: Anti-tumor efficiency of the claimed combined therapy and comparative monotherapy using only a cytostatic or only GMDP-A modifier was assessed by the criteria commonly used in experimental oncology: tumor volume (TV), tumor growth inhibition (TGI), increase of the animal life time (ILT), tumor metastasis frequency (MF), metastasis inhibition rate (MI).
Comparative study was carried out of the GMDP-A modifying effect relatively different cytostatic agents: cisplatin (DDP), gemzar and cyclophosphan (CP), in the P388 lymphoplastic leukemia model. Efficiency of combined therapy with cytostatics and GMDP-A was assessed while using DDP in amount of ½ therapeutic dose, gemzar as ½ therapeutic dose and CP in amount of ¼ therapeutic dose. Treatment was started on the early term of tumor growth (in 24 hours after inoculation); GMDP-A was injected during 21 days in a daily dose of 3.75 mg/kg. The drug was administered subcutaneously in 2 areas: in the tumor growth area (over the tumor) or in symmetry area (on the opposite side of the tumor node).
The following commercially-available drugs were used: Cyclophosphan Endoxan® trade mark, manufactured by Baxter Oncology GmbH, Germany; Cisplatin, Cisplatin Teva trade mark, manufacturer is Teva Pharmaceutical Industries Ltd., Israel (fabricated at Pharmachemie B. V., the Netherlands); Gemcitabine, Gemcitar trade mark, manufactured by CJSC Biocad, Russia.
1 mg/ml GMDP-A solution for subcutaneous injection was prepared by dissolving GMDP-A lyophilisate in water for injections.

[5] = tested on: P388 lymphoplastic leukemia; assay: Combined therapy DDP+GMDP-A in the P388 lymphoplastic leukemia model; type: in vivo, mice BDF1; conditions: single DDP 4 mg/kg i.v. alone
Procedure: as §1, §2, §3
Efficiency of the combined therapy—chemotherapy with cisplatin cytostatic (DDP) and bioherapy with GMDP-A was assessed on P388 lymphoplastic leukemia model inoculated to mice BDF1, females, subcutaneously on the right-side body surface.
GMDP-A was administered to mice subcutaneously as a single dose of 3.75 mg/kg every day with different schedules: • Five-fold (total dose is 18.75 mg/kg) on the 1st day to the 5th day or on the 5th day to the 9th day after tumor inoculation; • Ten-fold (total dose is 37.5 mg/kg) on the 1st day to the 10th day or on the 5th day to the 14th day after tumor inoculation; • Twenty-one-fold (total dose is 78.75 mg/kg) on the 1st day to the 21st st day after tumor inoculation.
DDP (Cisplatin, Cisplatin Teva trade mark, manufacturer is Teva Pharmaceutical Industries Ltd., Israel, fabricated at Pharmachemie B.V., the Netherlands) was administered intravenously as a single dose ma 4 mg/kg (½ of therapeutic dose).

## CC(=O)N[C@H]1[C@H](O[C@H]2[C@H](O[C@H](C)C(=O)N[C@@H](C)C(=O)N[C@H](CCC(=O)O)C(N)=O)[C@@H](NC(C)=O)C(O)O[C@@H]2CO)O[C@H](CO)[C@@H](O)[C@@H]1O (stereo partly drawn) [GMDP, N-acetyl-D-glucosaminyl-β-(1-4)-N-acetylmuramoyl-L-alanyl-D-isoglutamine]
[1]
  Pyrogenicity: pyrogenic effect

## N.N.[Cl][Pt][Cl] [DDP, cisplatin, reference compound]
[2]; day 8, early start (24 hour)
  Tumor volume: 29.4 ± 5.3 mm^3
  tumor growth inhibition (TGI): 65%
[2]; day 12, early start (24 hour)
  Tumor volume: 53.6 ± 5.4 mm^3
  tumor growth inhibition (TGI): 67%
[2]; day 16, early start (24 hour)
  Tumor volume: 96.3 ± 5.1 mm^3
  tumor growth inhibition (TGI): 73%
[2]; day 20, early start (24 hour)
  Tumor volume: 440 ± 26.7 mm^3
  tumor growth inhibition (TGI): 58%
[2]; early start (24 hour)
  Average life time: 30.0 ± 2.8 days
  ILT (increase of the animal life time): 22%
  Metastasis (upper, unnamed value in the Metastasis inhibition index column): 172.0 ± 14.4
  Metastasis MF (tumor metastasis frequency): 100%
  Metastasis inhibition index: 32%
[3]; day 7, early start (1st day)
  Tumor volume: 3 ± 3 mm^3
  tumor growth inhibition (TGI): 94%
[3]; day 9, early start (1st day)
  Tumor volume: 13 ± 5 mm^3
  tumor growth inhibition (TGI): 89%
[3]; day 9, late start (5th day)
  Tumor volume: 51 ± 8 mm^3
  tumor growth inhibition (TGI): 56%
[3]; day 12, early start (1st day)
  Tumor volume: 54 ± 18 mm^3
  tumor growth inhibition (TGI): 80%
[3]; day 12, late start (5th day)
  Tumor volume: 163 ± 22 mm^3
  tumor growth inhibition (TGI): 38%
[3]; day 14, early start (1st day)
  Tumor volume: 117 ± 20 mm^3
  tumor growth inhibition (TGI): 69%
[3]; day 14, late start (5th day)
  Tumor volume: 270 ± 45 mm^3
  tumor growth inhibition (TGI): 23%
[3]; day 16, early start (1st day)
  Tumor volume: 232 ± 36 mm^3
  tumor growth inhibition (TGI): 58%
[3]; day 16, late start (5th day)
  Tumor volume: 424 ± 43 mm^3
  tumor growth inhibition (TGI): 24%
[3]; day 19, early start (1st day)
  Tumor volume: 653 ± 176 mm^3
  tumor growth inhibition (TGI): 39%
[3]; day 19, late start (5th day)
  Tumor volume: 1010 ± 173 mm^3
  tumor growth inhibition (TGI): 5%
[3]; early start (1st day)
  Average life time: 28 ± 3 days
  ILT (increase of the animal life time): 33%
  Metastasis MF (tumor metastasis frequency): 20%
  Metastasis MI (metastasis inhibition rate): 99%
[3]; late start (5th day)
  Average life time: 25 ± 3 days
  ILT (increase of the animal life time): 19%
  Metastasis MF (tumor metastasis frequency): 100%
  Metastasis MI (metastasis inhibition rate): 11%
[4]; day 7
  tumor growth inhibition (TGI): 27%
[4]; day 12
  tumor growth inhibition (TGI): 36%
[4]; day 14
  tumor growth inhibition (TGI): 43%
[4]; day 19
  tumor growth inhibition (TGI): 33%
[4]; day 21
  tumor growth inhibition (TGI): 22%
[4]
  Average life time: 26 ± 1 days
  ILT (increase of the animal life time): 9%
  Metastasis MF (tumor metastasis frequency): 100%
  Metastasis MI (metastasis inhibition rate): 40%
[5]; day 7, early start (1st day)
  Tumor volume: 37.9 ± 4.5 mm^3
  tumor growth inhibition (TGI): 64%
[5]; day 7, late start (5th day)
  Tumor volume: 75.4 ± 4.8 mm^3
  tumor growth inhibition (TGI): 28%
[5]; day 9, early start (1st day)
  Tumor volume: 67.5 ± 7.7 mm^3
  tumor growth inhibition (TGI): 53%
[5]; day 9, late start (5th day)
  Tumor volume: 65.7 ± 6.2 mm^3
  tumor growth inhibition (TGI): 54%
[5]; day 12, early start (1st day)
  Tumor volume: 76.7 ± 7.7 mm^3
  tumor growth inhibition (TGI): 61%
[5]; day 12, late start (5th day)
  Tumor volume: 95.9 ± 8.4 mm^3
  tumor growth inhibition (TGI): 51%
[5]; day 14, early start (1st day)
  Tumor volume: 155.3 ± 12 mm^3
  tumor growth inhibition (TGI): 42%
[5]; day 14, late start (5th day)
  Tumor volume: 149.3 ± 11.6 mm^3
  tumor growth inhibition (TGI): 44%
[5]; day 19, early start (1st day)
  Tumor volume: 374.1 ± 28.4 mm^3
  tumor growth inhibition (TGI): 41%
[5]; day 19, late start (5th day)
  Tumor volume: 448.9 ± 33.2 mm^3
  tumor growth inhibition (TGI): 30%
[5]; early start (1st day)
  Average life time: 23 ± 0.7 days
  ILT (increase of the animal life time): −4%
  Metastasis MF (tumor metastasis frequency): 100%
  Metastasis MI (metastasis inhibition rate): 49%
[5]; late start (5th day)
  Average life time: 24 ± 0.6 days
  ILT (increase of the animal life time): 0%
  Metastasis MF (tumor metastasis frequency): 100%
  Metastasis MI (metastasis inhibition rate): 50%

## O=P1(N(CCCl)CCCl)NCCCO1 (stereo not drawn) [CP, cyclophosphan]
[4]; day 7
  tumor growth inhibition (TGI): 89%
[4]; day 12
  tumor growth inhibition (TGI): 86%
[4]; day 14
  tumor growth inhibition (TGI): 85%
[4]; day 19
  tumor growth inhibition (TGI): 76%
[4]; day 21
  tumor growth inhibition (TGI): 77%
[4]
  Average life time: 31 ± 2 days
  ILT (increase of the animal life time): 30%
  Metastasis MF (tumor metastasis frequency): 100%
  Metastasis MI (metastasis inhibition rate): 89%

## Nc1ccn([C@@H]2O[C@H](CO)[C@@H](O)C2(F)F)c(=O)n1 [Gemzar, Gemcitabine]
[4]; day 7
  tumor growth inhibition (TGI): 60%
[4]; day 12
  tumor growth inhibition (TGI): 37%
[4]; day 14
  tumor growth inhibition (TGI): 34%
[4]; day 19
  tumor growth inhibition (TGI): 45%
[4]; day 21
  tumor growth inhibition (TGI): 44%
[4]
  Average life time: 29 ± 2 days
  ILT (increase of the animal life time): 21%
  Metastasis MF (tumor metastasis frequency): 100%
  Metastasis MI (metastasis inhibition rate): 69%

Reference: patent publication US20170290882A1, “Specific Combined Therapy of Malignant Tumors with a Cytostatic and Its Modifier” (priority 2015, published 2017)
